Experimental data from ChEMBL document CHEMBL2390861, “Caffeic acid derivatives: a new type of influenza neuraminidase inhibitors” (Bioorg Med Chem Lett, 2013).

How the values were obtained:
[1] = molecular target: T1, Neuraminidase (Influenza A virus, UniProt B4URF0); assay: Inhibition of Influenza A virus H9N2 neuraminidase
[2] = Cytotoxicity against chicken embryo fibroblast after 2 days by MTS assay; type: cell-based, Gallus gallus; conditions: chicken embryo fibroblasts
[3] = molecular target: T1, Neuraminidase; assay: Inhibition of Influenza A virus H1N1 A/duck/China/QJ/01 neuraminidase N1 using 4-MU-NANA as substrate after 5 mins by fluorescence assay
[4] = molecular target: T1, Neuraminidase; assay: Inhibition of Influenza A virus (A/chicken/Sandong/Li/2008(H9N2)) neuraminidase N2 using 4-MU-NANA as substrate after 5 mins by fluorescence assay
[5] = molecular target: Neuraminidase (Influenza A virus) (UniProt B4URF0); assay: Inhibition of Influenza A virus H1N1 A/duck/China/QJ/01 neuraminidase N1 using 4-MU-NANA as substrate at 100 uM after 5 mins by fluorescence assay
[6] = molecular target: T1, Neuraminidase; assay: Inhibition of Influenza A virus H1N1 neuraminidase
[7] = system: Influenza A virus; assay: Antiviral activity against Influenza A virus (A/chicken/Sandong/Li/2008(H9N2)) infected in chicken embryo fibroblast assessed as protection against virus-induced cytopathic effect after 2 days by MTS assay; type: functional, organism-based; conditions: 48 h
[8] = molecular target: T1, Neuraminidase; assay: Non-competitive inhibition of Influenza A virus (A/chicken/Sandong/Li/2008(H9N2)) neuraminidase N2 using 4-MU-NANA as substrate by Lineweaver-Burk plot analysis

With `O=C(/C=C/c1ccc(O)c(O)c1)CC(=O)/C=C/c1ccc(O)c(O)c1` the IC50 [1] was 63.8 µM.

`CC(=O)Nc1cc(NC(=O)/C=C/c2ccc(O)c(O)c2)ccc1O` showed a CC50 at 48 h [2] of 78.2 µM, an IC50 [3] of 17.7 µM and an IC50 [4] of 27.4 µM.

Compound `CC(C)C(=O)Nc1cc(NC(=O)/C=C/c2ccc(O)c(O)c2)ccc1OCC(=O)O` has a CC50 at 48 h [2] of 94.3 µM, an IC50 [3] of 11.6 µM and an IC50 [4] of 13 µM.

`O=C(O)CCCNC(=O)/C=C/c1ccc(O)c(O)c1` showed an IC50 [3] of 27.7 µM and an IC50 [4] of 16.8 µM.

With `CC(C)C(=O)Nc1cc(NC(=O)/C=C/c2ccccc2)ccc1O` the inhibition [5] was 47.2%.

`COc1cc(O)ccc1C(=O)/C=C/c1ccc(O)cc1` gave an IC50 [6] of 24.3 µM.

Work on `O=C(/C=C/c1ccccc1)Nc1ccc(O)c(NC(=O)C2CC2)c1` yielded an inhibition [5] of 42.6%.

For `CCC(CC)C(=O)N[C@@H](CCCNC(=O)/C=C/c1ccc(O)c(O)c1)C(=O)O`, the IC50 [3] was 39.2 µM and the IC50 [4] was 44.2 µM.

Work on `CC(C)[C@H](NC(=O)/C=C/c1ccc(O)c(O)c1)C(=O)O` yielded an IC50 [3] of 38.3 µM and an IC50 [4] of 37.3 µM.

Compound `O=C(/C=C/c1ccc(O)c(O)c1)Nc1ccc(O)c(NC(=O)C2CC2)c1` has an IC50 [3] of 18.2 µM and an IC50 [4] of 24.7 µM.

`CCC(CC)C(=O)Nc1cc(NC(=O)/C=C/c2ccccc2)ccc1O` gave an inhibition [5] of 45.2%.

With `CCC(=O)Nc1cc(NC(=O)/C=C/c2ccc(O)c(O)c2)ccc1O` the CC50 at 48 h [2] was > 100 µM, the EC50 [7] was 58.6 µM and the IC50 [3] was 17.6 µM. For the same compound, the IC50 [4] was 23.6 µM.

`O=C(/C=C/c1ccc(O)c(O)c1)N[C@@H](Cc1ccccc1)C(=O)O` gave an IC50 [3] of 37.4 µM and an IC50 [4] of 39.6 µM.

For `CCC(CC)C(=O)Nc1cc(NC(=O)/C=C/c2ccc(O)c(O)c2)ccc1OCC(=O)O`, the CC50 at 48 h [2] was > 100 µM, the EC50 [7] was 31.2 µM and the Ki [8] was 11.5 µM. The IC50 [3] was 8.5 µM and the IC50 [4] was 7.2 µM.

In the case of `CCC(CC)C(=O)Nc1cc(NC(=O)/C=C/c2ccc(O)c(O)c2)ccc1O`, the CC50 at 48 h [2] is reported as > 100 µM, the EC50 [7] is reported as 22.6 µM and the IC50 [3] is reported as 22.8 µM. The IC50 [4] was 20.7 µM.

`O=C(O)CNC(=O)/C=C/c1ccc(O)c(O)c1` showed an IC50 [3] of 49.5 µM and an IC50 [4] of 43.3 µM.

`O=C(/C=C/c1ccc(O)c(O)c1)NCCC[C@H](NC(=O)Cc1ccccc1)C(=O)O` showed a CC50 at 48 h [2] of 87.7 µM, an IC50 [3] of 30.2 µM and an IC50 [4] of 28.1 µM.

In the case of `O=C(/C=C/c1ccc(O)c(O)c1)NCCC[C@H](NC(=O)c1ccccc1)C(=O)O`, the IC50 [3] is reported as 34.3 µM and the IC50 [4] is reported as 37.2 µM.

For `CCOC(=O)C1=C[C@@H](OC(CC)CC)[C@H](NC(C)=O)[C@@H](N)C1` [OSELTAMIVIR], the CC50 at 48 h [2] was > 10 µM and the EC50 [7] was 0.5 µM.

In the case of `CCC(=O)Nc1cc(NC(=O)/C=C/c2ccccc2)ccc1O`, the inhibition [5] is reported as 42.9%.

`CCC(=O)N[C@@H](CCCNC(=O)/C=C/c1ccc(O)c(O)c1)C(=O)O` gave an IC50 [3] of 31.3 µM and an IC50 [4] of 37.9 µM.

With `CC(C)C(=O)N[C@@H](CCCNC(=O)/C=C/c1ccc(O)c(O)c1)C(=O)O` the CC50 at 48 h [2] was 65 µM, the IC50 [3] was 31.9 µM and the IC50 [4] was 30.3 µM.

For `O=C(/C=C/c1ccc(O)c(O)c1)N[C@@H](Cc1c[nH]c2ccccc12)C(=O)O`, the CC50 at 48 h [2] was 89.5 µM, the EC50 [7] was > 100 µM and the IC50 [3] was 30.1 µM. The IC50 [4] was 27.2 µM.

Work on `CC(=O)Nc1cc(NC(=O)/C=C/c2ccc(O)c(O)c2)ccc1OCC(=O)O` yielded a CC50 at 48 h [2] of 60.4 µM, an IC50 [3] of 12.2 µM and an IC50 [4] of 15.4 µM.

In the case of `CC(C)(C)OC(=O)N[C@@H](CCCNC(=O)/C=C/c1ccc(O)c(O)c1)C(=O)O`, the IC50 [3] is reported as 34.7 µM and the IC50 [4] is reported as 33.6 µM.

For `O=C(O)CCNC(=O)/C=C/c1ccc(O)c(O)c1`, the CC50 at 48 h [2] was > 100 µM, the EC50 [7] was > 100 µM and the IC50 [3] was 27.3 µM. It also gave an IC50 [4] of 13.5 µM.

`O=C(O)COc1ccc(NC(=O)/C=C/c2ccc(O)c(O)c2)cc1NC(=O)C1CC1` gave a CC50 at 48 h [2] of 86.7 µM, an IC50 [3] of 13.8 µM and an IC50 [4] of 16.5 µM.

`CC(=O)Nc1cc(NC(=O)/C=C/c2ccccc2)ccc1O` showed an inhibition [5] of 40.2%.

Work on `O=C(/C=C/c1ccc(O)cc1)CC(=O)/C=C/c1ccc(O)c(O)c1` yielded an IC50 [1] of 64.1 µM.

Compound `CC(C)C(=O)Nc1cc(NC(=O)/C=C/c2ccc(O)c(O)c2)ccc1O` has an IC50 [3] of 19 µM and an IC50 [4] of 20.4 µM.
